According to US9624161B2 (priority 2009, dated 2017):
Values joined by “and” are separate entries in the source; they are usually repeats but may differ in a detail not shown here. Identical values can stand only once.

Legend:
rat ER-β = molecular target: T1, rat ER-β (Rattus norvegicus, UniProt Q62986); assay: Transactivation assay (agonist and antagonist modes), HEK-293 cells, ERE-LUC; type: cell-based
T1 construct: expressed in transfected cells; host or cells: HEK-293

[1] = tested on: men with castration resistant prostate cancer (CRPC); assay: Study 3: Compound IV 2000 mg daily in men with castration resistant prostate cancer maintained on ADT; type: in vivo, human; conditions: for Percentage of treated patients already on ADT (ITT population) below the free T cutoff of 0.5 pg/ml: Study 3, CRPC
Experimental: Men with CRPC (n=9) received 2000 mg Compound IV daily. The primary endpoint of the study was the proportion of subjects with a greater than or equal to 50% reduction in prostate specific antigen (PSA) from Day 1. Secondary endpoints included serum free T and SHBG which together with PSA were assessed at days 1, 15, 30, 60 and 90. Serum concentrations of total T, free T, SHBG and PSA were determined at baseline and during treatment.
A study (Study 3) was conducted to assess the effects of Compound IV on serum PSA progression in men with castration resistant prostate cancer who have been effectively treated with ADT and at the time of enrollment into this study have shown serum PSA progression. This study consisted of one dose arm with 9 subjects.
The subjects were 12 male subjects over age 18 years with castration resistant prostate cancer, who were being treated with androgen deprivation therapy (chemical or surgical castration) for at least 6 months, that have serum PSA >2 ng/mL or […] a 25% increase above the nadir after the initiation of androgen deprivation therapy (ADT) at study enrollment. The subjects were maintained on androgen deprivation therapy throughout the study.
The dose selected for the study was 2000 mg Compound IV. Four Compound IV tablets, 500 mg (2000 mg dose) were orally administered daily. […] Subjects received 2000 mg of Compound IV daily by mouth until study termination. Dosing was to be continued until their serum PSA had increased at least 25% and 2 ng/mL from the nadir at two successive sample times (approximately 30 days apart) after initiation of treatment with Compound IV. The prostate cancer working group (PCWG) definition of PSA progression was used (serum PSA has increased at least 25% and 2 ng/mL above the nadir after initiation of treatment with Compound IV on two successive sample times).
Assessments of serum PSA concentration were made at baseline and on Days 15, 30, and 60 (only 1 patient made it this far before study was terminated).
The proportion of subjects with a 50% decline from baseline in serum PSA (confirmed by a second PSA assessment at least one week later).

[2] = tested on: intact and orchiectomized (ORX) male Sprague-Dawley rats; assay: Suppression of LH and testosterone in intact and ORX rats, 14-day subcutaneous dosing; type: in vivo, rat; conditions: for Serum testosterone: LLOQ 0.08 ng/mL
Experimental: An in vivo dose-response study was conducted to evaluate the effect of Compound IV on LH suppression in intact and orchiectomized (ORX) male rats.
Male Sprague-Dawley rats weighing approximately 200 g were maintained on a 12-h light/dark cycle with food (2016 Teklad Global 16% Protein Rodent Diet, Harlan, Madison, Wis.) and water available ad libitum. The animal protocol was reviewed and approved by the Institutional Animal Care and Use Committee of the University of Tennessee.
The test article for this study was weighed and dissolved in 10% DMSO (Fisher) diluted with PEG 300 (Acros Organics, NJ) to prepare the appropriate dose formulations. For this study, sixty (60) male Sprague-Dawley rats were randomized by body weight, and assigned to one of the twelve treatment groups (n=5 animals/group). The animals were housed in groups of 2 to 3 animals per cage. Control groups (intact and orchidectomized (ORX)) were administered vehicle daily. […]
After a 14-day dosing regimen, the animals were sacrificed under anesthesia (ketamine/xylazine, 87:13 mg/kg) and body weights were recorded. In addition, ventral prostate, seminal vesicles, and levator ani muscle were removed, cleaned of extraneous tissue, and individually weighed. Organ weight were normalized to body weight and expressed as a percentage of intact control. Blood was collected from the abdominal aorta under isoflurane anesthesia and allowed to clot. Serum was separated by centrifugation and stored at −80° C. prior to determination of serum hormone levels. Serum luteinizing hormone (LH) and follicle stimulating hormone (FSH) concentrations were determined by the Rat Pituitary Luminex Assay (Millipore, Billerica, Mass.) according to manufacturer's directions. The lower limit of quantitation for this assay was 3.2 pg/mL for LH and 32 pg/mL for FSH. Testosterone was measured by a Testosterone EIA (Alpco Diagnostics, Salem, N.H.) with a LLOQ of 0.08 ng/mL. Serum hormone values below the lower limit of quantitation (BLOQ) were omitted from analysis of group means. Therefore, the reported value for LH and T in the groups with samples BLOQ is higher than the actual value. This method of analysis provided the most conservative estimate of LH and T suppression. Fisher's Least Significant Difference test was used to compare individual dose groups to the intact and ORX vehicle control groups. Significance was defined a priori as a P-value <0.05.

[3] = tested on: sexually mature male cynomolgus monkeys; assay: 39-week oral pharmacology and toxicology study in male cynomolgus monkeys (13-week interim); type: in vivo, cynomolgus monkey
healthy human subjects = assay: Single and multiple dose studies in healthy human subjects; type: in vivo; conditions: for Subjects with decreased total testosterone levels: multiple doses
Experimental: There were observations of elevated ALT levels above the upper limit of normal in four subjects in the multiple dose study (3 subjects in the 1000 mg group and 1 subject in the 600 mg group). The highest single observed value of ALT was 129 IU/L or 2.6 times the upper limit of normal. Aspartate aminotransferase levels were also elevated in this subject to 1.9 times the upper limit of normal.
Serum total testosterone levels were assessed throughout the multiple doses study. Total testosterone levels were decreased in 100% (10/10) of the subjects in the 600 mg dose group and 90% (9/10) of the subjects in the […] dose group. The levels of total testosterone were decreased to below the lower limit of normal in 40% (4/10) of the subjects in the 600 mg dose group and 50% (5/10) of the subjects in the 1000 mg dose group.

male or female dogs = assay: Single and repeated oral dose toxicity in dogs (up to 28 days); type: in vivo, dog
From the text: Compound IV was well-tolerated by rats and dogs after single and repeated oral administration (up to 28 days).

intact and ORX rats = assay: Prostate size in intact and ORX rats, Compound IV versus DES; type: in vivo, rat; conditions: rats (FIG. 11)

T1 sequence (Q62986 whole entry): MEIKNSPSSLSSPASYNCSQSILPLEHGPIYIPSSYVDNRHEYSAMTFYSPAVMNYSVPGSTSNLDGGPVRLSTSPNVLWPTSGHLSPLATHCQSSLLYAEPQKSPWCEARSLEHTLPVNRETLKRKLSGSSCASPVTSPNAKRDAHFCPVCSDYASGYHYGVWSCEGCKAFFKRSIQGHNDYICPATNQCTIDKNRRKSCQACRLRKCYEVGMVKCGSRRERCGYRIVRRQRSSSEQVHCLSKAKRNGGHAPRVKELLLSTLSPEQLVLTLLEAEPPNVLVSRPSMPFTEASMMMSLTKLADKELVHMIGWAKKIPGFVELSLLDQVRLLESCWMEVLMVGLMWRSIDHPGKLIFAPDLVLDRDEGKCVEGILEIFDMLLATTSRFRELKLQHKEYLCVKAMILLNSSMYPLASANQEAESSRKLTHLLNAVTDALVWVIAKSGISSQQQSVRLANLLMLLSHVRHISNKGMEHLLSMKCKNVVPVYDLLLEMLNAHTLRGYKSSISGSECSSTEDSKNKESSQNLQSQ

## O=C(c1ccc(O)c(F)c1)N(c1ccc(O)cc1)c1ccc(F)cc1 [Compound IV, 3-fluoro-N-(4-fluorophenyl)-4-hydroxy-N-(4-hydroxyphenyl)benzamide]
Rat ER-β
  Fold less potency to stimulate ERβ-mediated transcription compared to estradiol: ~1400 fold
[1]; 15 days, men maintained on ADT with LHRH agonists alone
  Free T reductions and PSA decreases from baseline: in all of the men
[1]; CRPC patients on ADT
  Effect on serum total T levels: did not further reduce
[1]; Day 15
  Reduction in % FreeT: greater than 50%
[1]; 15 days on therapy
  Percentage of treated patients already on ADT (ITT population) below the free T cutoff of 0.5 pg/ml: 85.7%
[1]; 30 days on therapy
  Percentage of treated patients already on ADT (ITT population) below the free T cutoff of 0.5 pg/ml: 66.7%
[1]; 60 days on therapy
  Percentage of treated patients already on ADT (ITT population) below the free T cutoff of 0.5 pg/ml: 100%
[1]; after two weeks
  Patients with greater than 50% reduction in PSA: 3 of 7
[1]; day 15
  Men that reached free T below 0.5 pg/mL: 85.7%
[1]; day 30
  Men that reached free T below 0.5 pg/mL: 66.7%
[1]; day 60
  Men that reached free T below 0.5 pg/mL: 100%
[1]; seven evaluable subjects
  Subjects with a reduction in serum PSA from baseline to Day 15: All seven
[1]; subjects with at least 30 days of exposure
  Subjects with >50% reduction in serum PSA: all three and 2 of 3
[2]; Intact rats, 10 mg/kg per day s.c., 14 days
  Serum testosterone: BLOQ
[2]; Intact rats, 30 mg/kg per day s.c., 14 days
  Serum testosterone: BLOQ
[2]; ORX rats, all dose groups (0.3-30 mg/kg/day)
  Serum testosterone: BLOQ
[2]; intact male rats, 3, 10 and 300 mg/kg, after 24 h, 72 h and 168 h (FIG. 9)
  Suppression of serum testosterone: Rapid and potent suppression
[2]; intact rats, 14 days s.c.
  Doses with significant reduction of FSH levels: ≥ 10 mg/kg/day
  Doses with significant reduction of testosterone levels: ≥ 3 mg/kg per day
[3]; 100 mg/kg/day oral, after 90 days, Group 4
  Monkeys with testosterone below the limit of quantification: 6 of 10
[3]; any Compound IV dose, up to 100 mg/kg/day
  Initial testosterone flare: not observed
Healthy human subjects; 600 mg dose group
  Subjects with total testosterone below the lower limit of normal: 40%
  Subjects with decreased total testosterone levels: 100%
Healthy human subjects; 997 mg dose group
  Subjects with decreased total testosterone levels: 90%
Healthy human subjects; 1000 mg dose group
  Subjects with total testosterone below the lower limit of normal: 50%
Healthy human subjects; all subjects
  Time for total testosterone to return to normal after discontinuation: ≤ 6 days
Healthy human subjects; any subject in the trial
  Elevations in total bilirubin: no observations of elevations
Healthy human subjects; healthy human subjects
  Well tolerated single doses: up to 1247 mg
Healthy human subjects; healthy human subjects, up to 10 days
  Well tolerated multiple doses: up to 997 mg
Healthy human subjects; multiple dose study
  Aspartate aminotransferase elevation in the same subject: 1.9 times the upper limit of normal
Healthy human subjects; multiple dose study, 600 mg group
  Subjects with ALT above the upper limit of normal: 1 subject
Healthy human subjects; multiple dose study, 1000 mg group
  Subjects with ALT above the upper limit of normal: 3 subjects
Healthy human subjects; multiple doses study
  Subjects with total testosterone below 1.73 nmol/L (castrate range): no subject
Male or female dogs
  Tolerability after single and repeated oral administration: well-tolerated
Intact and ORX rats
  Reduction of prostate size: as effective as DES
